US6875576B2, “Method for evaluating therapeutic efficacy” (Kosan Biosciences, Inc., priority 2001, dated 2005)

Assays:
C3a receptor = target: T1, C3a receptor (Homo sapiens, UniProt Q16581); experiment: Ca2+ mobilization via FLIPR; assay type: cell-based
T1 construct: expressed in transfected cells; host or cells: HEK 293, transient transfection, with or without promiscuous G protein Galpha16
T1 sequence (Q16581 1-482): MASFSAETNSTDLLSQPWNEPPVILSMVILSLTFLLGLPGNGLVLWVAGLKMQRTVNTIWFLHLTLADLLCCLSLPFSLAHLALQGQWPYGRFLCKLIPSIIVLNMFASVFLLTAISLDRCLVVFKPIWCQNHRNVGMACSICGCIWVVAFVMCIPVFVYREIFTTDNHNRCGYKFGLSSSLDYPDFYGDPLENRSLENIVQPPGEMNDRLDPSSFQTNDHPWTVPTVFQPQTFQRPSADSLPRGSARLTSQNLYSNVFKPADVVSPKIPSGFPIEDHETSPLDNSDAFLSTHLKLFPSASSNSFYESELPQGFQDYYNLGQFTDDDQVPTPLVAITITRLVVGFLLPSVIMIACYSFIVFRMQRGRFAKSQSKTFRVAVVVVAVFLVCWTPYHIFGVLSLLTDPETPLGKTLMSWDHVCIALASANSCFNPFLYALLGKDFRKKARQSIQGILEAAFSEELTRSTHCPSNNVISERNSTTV
Procedure: 1. 24 h after receptor transfection harvest and plate cells into poly-D-lysine-coated 96-well black-walled/clear bottom microtiter plates (Becton Dickinson Labware) at 3×10^4 cells per well.
2. After 18 to 24 h aspirate off medium and add 100 μl of fresh EMEM containing 4 μM Fluo-3/AM (Molecular Probes; prepare stock solution at 2 mM in DMSO containing 20% pluronic acid), 0.1% BSA, and […] to each well and incubate for 1 h at 37° C.
3. Aspirate medium and replace with 100 μl of the same medium, but without Fluo-3/AM, and incubate for 10 min at 37° C. Wash cells three times with a Denley cell washer (Labsystems) with Krebs Ringer Henscleit (KRH; 118 mM NaCl, 4.6 mM KCl, […] NaHCO3, 1 mM KH2PO4, 1.1 mM glucose, 1.1 mM MgCl2) containing 0.1% BSA, […], and 20 mM HEPES pH 7.4 (buffer A). After the last wash aspirate down to a final volume of 100 μl.
4. Prepare plates of potential ligands, tissue extracts, or compound libraries in 96-well polypropylene microplates at three times the final concentration in buffer A and warm to 37° C.
5. Place microplates containing Fluo-3 loaded cells and the ligand plates in FLIPR and monitor. At initiation of the fluorescence recording read measurements every 1 s for 60 s and then every 3 s for the following 60 s. […] FLIPR software normalizes fluorescent readings to give equivalent readings for all wells at zero time.

Acid stability = assay type: physicochemical; settings: stomach environment
human motilin receptor [1] = target: T2, human motilin receptor (Homo sapiens, UniProt O43193); experiment: Efficacy index: ratio of desensitization value to potency value, motilin receptor and aequorin co-expressed; assay type: cell-based; settings: ratio of desensitization value (IC50) to potency value (EC50); cells co-expressing motilin receptor and aequorin
T2 construct: expressed in transfected cells; host or cells: HEK293 (ATCC CRL-1573), transiently or stably transfected with pkos127-159 and pmtAEQ
T2 sequence (O43193 whole entry): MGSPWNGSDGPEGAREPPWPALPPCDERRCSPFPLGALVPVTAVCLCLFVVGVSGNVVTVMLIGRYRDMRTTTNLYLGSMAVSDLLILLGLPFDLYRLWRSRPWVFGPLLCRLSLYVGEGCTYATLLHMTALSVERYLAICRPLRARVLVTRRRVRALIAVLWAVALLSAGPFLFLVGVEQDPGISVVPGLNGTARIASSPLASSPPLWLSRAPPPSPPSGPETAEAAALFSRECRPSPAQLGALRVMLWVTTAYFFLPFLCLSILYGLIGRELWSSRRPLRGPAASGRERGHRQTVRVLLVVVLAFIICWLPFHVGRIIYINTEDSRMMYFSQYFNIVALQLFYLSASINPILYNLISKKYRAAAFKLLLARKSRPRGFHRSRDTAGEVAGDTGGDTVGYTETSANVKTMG
Source text: In one aspect of the present invention, the comparison of the potency value and the desensitization value is accomplished by calculating a ratio of the desensitization value to the potency value. This ratio is termed the “efficacy index”. […] In other words, because the concentration required for the desired biological response is also the concentration that induces desensitization, the compound is not likely to be therapeutically effective if the desired response is receptor activation. Under these circumstances, the concentration required for the desired biological response should be well below the concentration that induces desensitization. […]
(§1) Flasks containing HEK293 cells either transiently or stably expressing the motilin receptor and aequorin were used in receptor activation assays. Cells were grown to 80-100% confluence in T175 flasks containing MEMalpha medium with 10% v/v fetal bovine serum, harvested by trypsinization, and counted using a hemocytometer. […]
Stock solutions (20 mM) of test compounds were made in ethanol and diluted 100-fold into PBS. […] One of the injectors was used to add 100 uL of the cell suspension (˜5×10^4 to 10^5) to each well, and the bioluminescence response was measured over the course of 30-60 seconds. […] The F value of the cells to each test compound was calculated using equation 1, and data were fit to equation 2 to obtain EC50 values for the test compounds. […]

human motilin receptor [2] = target: T2, human motilin receptor; experiment: Motilin receptor activation assay (aequorin luminescence); assay type: cell-based; settings: motilin receptor agonism
Source text: A gene encoding the target receptor is cloned and placed into a mammalian expression vector such as pcDNA3.1. The gene may be synthetic or naturally derived. Next, pmtAEQ, an aequorin expression plasmid available from Molecular Probes, and the receptor expression construct are transfected into HEK293 cells using a commercially available transfection kit such as Lipofectamine Plus (Gibco BRL). At this point, a stable cell line may be selected from the transfection mix using common techniques, or the heterologous mixture obtained from transient transfection may be used directly. […] A 100 uL aliquot of cells is added to each well, and following each addition, the integrated luminescence is measured for 30-60 seconds and is taken as the agonist response. Next, 100 uL of 1% triton X-100 in PBS is injected into each well, and the integrated luminescence is measured a second time over 30-60 seconds and is taken as the triton response. A value F is calculated as equaled to the agonist response divided by the sum of the agonist response and the triton response. […]
as §1

[3] = treating gastroesophageal reflux disease; Van Her Waarde et al. 2000; cited from earlier work

Compound: C3a: ligand of the C3a receptor
- Ca2+ mobilization response (C3a receptor; C3a receptor co-expressed with Gα16 in HEK 293 cells): robust responses
- Ca2+ mobilization response (C3a receptor; C3a receptor expressed alone in HEK 293 cells): weak or no Ca^2+ mobilization responses

Compound: CC[C@H]1OC(=O)[C@H](C)[C@@H](OC2C[C@@](C)(OC)[C@@H](O)[C@H](C)O2)[C@H](C)[C@@H](OC2O[C@H](C)C[C@H](N(C)C)[C@H]2O)[C@]2(C)CC(C)=C(O2)[C@H](C)[C@@H](O)[C@]1(C)O (stereo partly drawn) [erythromycin 6,9-enol ether]
- stability in acid (Acid stability): unstable in acid
- efficacy index (human motilin receptor [1]): greater than 20,000
- potency (EC50) (human motilin receptor [2]): nanomolar range

Compound: CC[C@H]1OC(=O)[C@H](C)[C@@H](OC2C[C@@](C)(OC)C[C@H](C)O2)[C@H](C)[C@@H](OC2O[C@H](C)C[C@H](N(C)CC)[C@H]2O)[C@]2(C)CC(C)=C(O2)[C@H](C)[C@@H](O)[C@H]1C (stereo partly drawn) [ABT-229]
- clinical efficacy [3]: lack of efficacy
